Assay results: patent publication EP4167978B1, “USE OF JUNIPER (JUNIPERUS COMMUNIS) BERRIES EXTRACT, DEOXYPODOP[…] […], AS POSITIVE ALLOSTERIC MODULATORS OF CANNABINOID TYPE 1 RECEPTOR FOR TREATING NEUROPATHIC PAIN AND IN[…]” (Vivacell Biotechnology Espana S.L., priority 2020, dated 2022)

Key:
human CB1R [1] = target: T1, human CB1R (Homo sapiens, UniProt P21554); assay: CB1R agonistic activity, CRE-luciferase reporter without CP-55,940; assay type: cell-based; settings: HEK293T-CB1-CRE-luc cells, compound alone
T1 construct: expressed in transfected cells; host or cells: HEK293T (HEK293T-CB1-CRE-Luc)
Procedure: The determination of CB1R activity was carried out using the HEK293T-CB1-CRE-Luc cells stably transfected with the human CB1R cDNA, and a construction of CRE-Luc that contains as promoter six consensus cAMP responsive elements (CRE) linked to firefly luciferase reporter gene. The increase in cAMP levels activates the CRE-Luc system, inducing the expression of the luciferase reporter gene. Briefly, HEK293T-CB1-CRE-Luc cells were cultured in supplemented DMEM (Sigma) medium containing 10% FBS (Gibco) and 1% antibiotics penicillin/streptomycin (Sigma) (DMEM complete medium) and maintained at 37° C in a humidified atmosphere of 5% CO2. […] Luciferase activity was measured using a TriStar2 Berthold/LB942 multimode reader (Berthold Technologies) following the instructions of the luciferase assay kit (Promega, Madison, Wl, USA). The RLUs (relative light units) were calculated and: (i) For allosteric activity, results were expressed as percentage of CB1R activity normalized to 100% stimulation induced by 2.5 µM CP-55,940, according to the following formula: Percentage of CB1R activity = 100 * (T - B) / (C - B); where T are the RLUs of the cells treated with the fractions and 2.5 µM CP-55,940; C are the RLUs of the cells treated with CP-55,940 alone, and B are the RLUs of the cells without stimulus. […]

human CB1R [2] = target: T1, human CB1R; assay: CB1R positive allosteric modulation (PAM) activity, CRE-luciferase reporter in the presence of the orthosteric agonist CP-55,940; assay type: cell-based; settings: for percentage of CB1R activity normalized to 100% stimulation induced by 2.5 µM CP-55,940 alone: HEK293T-CB1-CRE-luc cells, tested at 1, 5, 10 and 25 µg/mL in the presence of 2.5 µM CP-55,940, CB1R activity ≥ 150% is considered CB1R PAM activity; for CB1R PAM activity: result in words, HEK293T-CB1-CRE-luc cells with 2.5 µM CP-55,940
Procedure: The determination of CB1R activity was carried out using the HEK293T-CB1-CRE-Luc cells stably transfected with the human CB1R cDNA, and a construction of CRE-Luc that contains as promoter six consensus cAMP responsive elements (CRE) linked to firefly luciferase reporter gene. The increase in cAMP levels activates the CRE-Luc system, inducing the expression of the luciferase reporter gene. Briefly, HEK293T-CB1-CRE-Luc cells were cultured in supplemented DMEM (Sigma) medium containing 10% FBS (Gibco) and 1% antibiotics penicillin/streptomycin (Sigma) (DMEM complete medium) and maintained at 37° C in a humidified atmosphere of 5% CO2. The day before the assay 10^4 cells per well were seeded in 96 well-plates and incubated overnight. For determining CB1R positive allosteric modulation (PAM) activity, HEK293T-CB1-CRE-Luc cells were treated with increasing concentrations of the fractions for 30 min and then treated with the CB1R orthosteric agonist CP-55,940 at 2.5 µM. For CB1R agonistic activity, HEK293T-CB1-CRE-Luc cells were treated with increasing concentrations of the fractions. CP-55,940 alone, a CB1R orthosteric agonist, was used at 2.5 µM as positive control of cAMP signaling pathway activated by a CB1R-dependent orthosteric mechanism; and cells without stimulus were used as negative control. In both assays, after 6 h of stimulation, cells were washed twice with PBS 1X and lysed in 100 µL lysis buffer containing 25 mM Tris-phosphate (pH 7.8), 8 mM MgCl2, 1 mM DTT, 1% Triton X-100, and 7% glycerol during 15 min at room temperature in a horizontal shaker. Luciferase activity was measured using a TriStar2 Berthold/LB942 multimode reader (Berthold Technologies) following the instructions of the luciferase assay kit (Promega, Madison, Wl, USA). The RLUs (relative light units) were calculated and: (i) For allosteric activity, results were expressed as percentage of CB1R activity normalized to 100% stimulation induced by 2.5 µM CP-55,940, according to the following formula: Percentage of CB1R activity = 100 * (T - B) / (C - B); where T are the RLUs of the cells treated with the fractions and 2.5 µM CP-55,940; C are the RLUs of the cells treated with CP-55,940 alone, and B are the RLUs of the cells without stimulus. CB1R activity ≥ 150% was considered CB1R PAM activity (ii) For the CB1R agonistic activity, results were expressed as a fold change over non-stimulated cells according to the following formula: Fold change of CB1R activity = T / B; where T are RLUs of the cells treated with the fractions and B are the RLUs of the cells without stimulus. CB1R activity ≥ 2.5-fold increase is considered CB1R agonistic activity.

T1 sequence (P21554 whole entry): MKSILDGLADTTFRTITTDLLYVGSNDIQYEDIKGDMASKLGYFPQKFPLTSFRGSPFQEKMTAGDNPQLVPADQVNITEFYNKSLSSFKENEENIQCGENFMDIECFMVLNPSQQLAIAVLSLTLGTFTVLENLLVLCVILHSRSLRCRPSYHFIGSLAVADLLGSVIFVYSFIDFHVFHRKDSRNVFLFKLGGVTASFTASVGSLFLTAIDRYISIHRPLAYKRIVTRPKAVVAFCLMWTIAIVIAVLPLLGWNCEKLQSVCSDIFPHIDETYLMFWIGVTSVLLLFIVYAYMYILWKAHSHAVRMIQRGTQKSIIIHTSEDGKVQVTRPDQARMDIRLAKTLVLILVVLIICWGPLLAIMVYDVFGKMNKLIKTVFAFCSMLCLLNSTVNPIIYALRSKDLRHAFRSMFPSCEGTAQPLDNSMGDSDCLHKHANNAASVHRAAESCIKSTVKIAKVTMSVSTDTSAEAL

Row | SMILES | CB1R agonistic activity on cAMP signaling pathway (human CB1R [1]; at high concentrations, ≥ 2.5-fold increase over non-stimulated cells is considered agonistic) | CB1R agonistic activity on cAMP signaling pathway (human CB1R [1]; at the lower tested concentration) | percentage of CB1R activity normalized to 100% stimulation induced by 2.5 µM CP-55,940 alone (human CB1R [2]) | CB1R PAM activity (human CB1R [2]) | CB1R PAM activity (human CB1R [2]; listed as Agathadiol)
1 | C=C1CC[C@H]2[C@@](C)(CO)CCC[C@]2(C)[C@H]1CC/C(C)=C/CO [agathadiol, (E)-5-[(1S,4aR,5S,8aR)-5-(hydroxymethyl)-5,8a-dimethyl-2-methylidene-3,4,4a,6,7,8-hexahydro-1H-naphthalen-1-yl]-3-methylpent-2-en-1-ol] | medium CB1R agonistic activity | residual | over 1000% | clear CB1R PAM activities at a range of concentrations | increasingly stronger bioactive effect as PAM of CB1R with increasing concentrations
2 | COc1cc([C@H]2c3cc4c(cc3C[C@@H]3COC(=O)[C@H]32)OCO4)cc(OC)c1OC [deoxypodophyllotoxin, (5S,5aS,8aS)-5-(3,4,5-trimethoxyphenyl)-5a,8,8a,9-tetrahydro-5H-[2]benzofuro[5,6-f][1,3]benzodioxol-6-one] |  |  | over 1000% | clear CB1R PAM activities at a range of concentrations | 
